{
  "source": "paper PMC4747864",
  "about": "(Molecular cancer therapeutics, 2015)",
  "key": {"[1]": {"target": "αvβ3 integrin (K562/αvβ3+ cells) (Homo sapiens, UniProt P05106+P06756)", "format": "binding", "details": "for decrease (loss) of binding affinity / potency relative to LXW7: versus parent LXW7"}, "[2]": {"target": "T1, αvβ3 integrin (αvβ3-K562 cells) (Homo sapiens, UniProt P05106+P06756)", "format": "binding", "details": "1μM biotinylated LXW64, then streptavidin-PE, flow cytometry"}, "[3]": {"target": "T2, αvβ5 integrin (αvβ5-K562 cells) (Homo sapiens, UniProt P06756+P18084)", "format": "binding", "details": "1μM biotinylated LXW64, then streptavidin-PE, flow cytometry"}, "[4]": {"target": "T3, αIIbβ3 integrin (αIIbβ3-K562 cells) (Homo sapiens, UniProt P05106+P08514)", "format": "binding", "details": "1μM biotinylated LXW64, then streptavidin-PE, flow cytometry"}, "[5]": {"target": "T4, α5β1 integrin (parent K562 cells) (Homo sapiens, UniProt P05556+P08648)", "format": "binding", "details": "1μM biotinylated LXW64, then streptavidin-PE, flow cytometry"}, "[6]": {"system": "U-87MG glioblastoma cells", "assay": "Binding to U-87MG glioblastoma cells in vitro", "format": "cell-based"}, "[7]": {"target": "T1, αvβ3 integrin (αvβ3-K562 cells)", "details": "earlier study; cited from earlier work"}, "[8]": {"target": "T2, αvβ5 integrin (αvβ5-K562 cells)", "details": "earlier study; cited from earlier work"}, "[9]": {"target": "T3, αIIbβ3 integrin (αIIbβ3-K562 cells)", "details": "earlier study; cited from earlier work"}, "[10]": {"target": "T4, α5β1 integrin (parent K562 cells)", "details": "earlier study; cited from earlier work"}, "[11]": {"system": "glioblastoma U-87MG or melanoma A375M xenograft models", "details": "in vivo and ex vivo optical imaging, U-87MG or A375M xenograft models; cited from earlier work"}},
  "note": "Entries after “also recorded” stand apart in the source; their conditions may differ. Where a SMILES comes first, the peptide text is derived from it. Bridges are numbered along the chain shown (N, C = ends). [ ]: non-standard residue; d: D form. dPen = CC(C)(S)[C@@H](N)C(=O)O; βAla = NCCC(=O)O",
  "data": [
    {"molecule": "R4-cGRGDdvc-NH2 [compound 21]", "values": [
      {"measurement": "binding affinity compared with LXW7 (in words)", "setting": "[1]", "value": "modest loss of potency"}
    ]},
    {"molecule": "CC(C)[C@H]1NC(=O)[C@@H](CC(=O)O)NC(=O)[C@H](CC(=O)O)NC(=O)CNC(=O)[C@H](CCCNC(=N)N)NC(=O)CNC(=O)[C@@H](N)CSSC[C@H](C(N)=O)NC1=O", "note": "[peptide 2, CGRGDdvc-NH2] (H-CGRGD[dD][dV][dC]-NH2; disulfide 1-8 (inferred); N-terminus assumed)", "values": [
      {"measurement": "decrease (loss) of binding affinity / potency relative to LXW7", "setting": "[1]", "value": 10, "unit": "fold"}
    ]},
    {"molecule": "CC(C)[C@H]1NC(=O)[C@@H](CC(=O)O)NC(=O)[C@H](CC(=O)O)NC(=O)CNC(=O)[C@H](CCCNC(=N)N)NC(=O)CNC(=O)[C@@H](N)CSSC[C@@H](C(N)=O)NC1=O", "note": "[peptide 4, CGRGDdvC-NH2] (H-CGRGD[dD][dV]C-NH2; disulfide 1-8 (inferred); N-terminus assumed)", "values": [
      {"measurement": "binding affinity compared with LXW7 (in words)", "setting": "[1]", "value": "complete loss of binding affinity"}
    ]},
    {"molecule": "CC(C)[C@H]1NC(=O)[C@@H](CC(=O)O)NC(=O)[C@H](CC(=O)O)NC(=O)CNC(=O)[C@H](CCCNC(=N)N)NC(=O)CNC(=O)[C@H](N)C(C)(C)SSC(C)(C)[C@H](C(N)=O)NC1=O", "note": "[peptide 7, DPen-GRGDdv-DPen-NH2] (H-[dPen]GRGD[dD][dV][dPen]-NH2; disulfide 1-8 (inferred); N-terminus assumed)", "values": [
      {"measurement": "decrease (loss) of binding affinity / potency relative to LXW7", "setting": "[1]", "value": "4 to 10", "unit": "fold"}
    ]},
    {"molecule": "CC(C)[C@H]1NC(=O)[C@@H](CC(=O)O)NC(=O)[C@H](CC(=O)O)NC(=O)CNC(=O)[C@H](CCCNC(=N)N)NC(=O)CNC(=O)[C@H](N)C(C)(C)SSC[C@H](C(N)=O)NC1=O", "note": "[peptide 5, DPen-GRGDdvc-NH2] (H-[dPen]GRGD[dD][dV][dC]-NH2; disulfide 1-8 (inferred); N-terminus assumed)", "values": [
      {"measurement": "decrease (loss) of binding affinity / potency relative to LXW7", "setting": "[1]", "value": "4 to 10", "unit": "fold"}
    ]},
    {"molecule": "CC(C)[C@H]1NC(=O)[C@@H](CC(=O)O)NC(=O)[C@H](CC(=O)O)NC(=O)CNC(=O)[C@H](CCCNC(=N)N)NC(=O)CCNC(=O)[C@H](N)CSSC[C@H](C(N)=O)NC1=O", "note": "[peptide 9, c-βala-RGDdvc-NH2] (H-[dC][βAla]RGD[dD][dV][dC]-NH2; disulfide 1-8 (inferred); N-terminus assumed)", "values": [
      {"measurement": "decrease (loss) of binding affinity / potency relative to LXW7", "setting": "[1]", "value": 11, "unit": "fold"}
    ]},
    {"molecule": "N=C(N)NCCC[C@@H]1NC(=O)CNC(=O)[C@H](N)CSSC[C@H](C(N)=O)NC(=O)[C@@H](Cc2cccc3ccccc23)NC(=O)[C@@H](CC(=O)O)NC(=O)[C@H](CC(=O)O)NC(=O)CNC1=O", "note": "[peptide 40, cGRGDd-DNal1-c-NH2]", "values": [
      {"measurement": "higher binding affinity than LXW7", "setting": "[1]; versus LXW7", "value": 6.6, "unit": "fold"},
      {"measurement": "binding to αvβ3-K562 cells", "setting": "[2]", "value": "strongly; also recorded: significant positive binding"},
      {"measurement": "binding to αvβ5-K562 cells", "setting": "[3]", "value": "weakly"},
      {"measurement": "binding to αIIbβ3-K562 cells", "setting": "[4]", "value": "weakly"},
      {"measurement": "binding to parent K562 cells (α5β1)", "setting": "[5]", "value": "no binding"},
      {"measurement": "binding to U-87MG glioblastoma cells", "setting": "[6]", "value": "binding strongly"}
    ]},
    {"molecule": "CC(C)[C@H]1NC(=O)[C@@H](CC(=O)O)NC(=O)[C@H](CC(=O)O)NC(=O)CNC(=O)[C@H](CCCNC(=N)N)NC(=O)[C@@H](C)NC(=O)[C@H](N)CSSC[C@H](C(N)=O)NC1=O", "note": "[peptide 8, caRGDdvc-NH2] (H-[dC][dA]RGD[dD][dV][dC]-NH2; disulfide 1-8 (inferred); N-terminus assumed)", "values": [
      {"measurement": "decrease (loss) of binding affinity / potency relative to LXW7", "setting": "[1]", "value": 7.8, "unit": "fold"}
    ]},
    {"molecule": "CC(C)[C@H]1NC(=O)[C@@H](CC(=O)O)NC(=O)[C@H](CC(=O)O)NC(=O)CNC(=O)[C@H](CCCNC(=N)N)NC(=O)CNC(=O)[C@H](N)CSSC[C@@H](C(N)=O)NC1=O", "note": "[peptide 3, cGRGDdvC-NH2] (H-[dC]GRGD[dD][dV]C-NH2; disulfide 1-8 (inferred); N-terminus assumed)", "values": [
      {"measurement": "decrease (loss) of binding affinity / potency relative to LXW7", "setting": "[1]", "value": 16, "unit": "fold"}
    ]},
    {"molecule": "CC(C)[C@H]1NC(=O)[C@@H](CC(=O)O)NC(=O)[C@H](CC(=O)O)NC(=O)CNC(=O)[C@H](CCCNC(=N)N)NC(=O)CNC(=O)[C@H](N)CSSC(C)(C)[C@H](C(N)=O)NC1=O", "note": "[peptide 6, cGRGDdv-DPen-NH2] (H-[dC]GRGD[dD][dV][dPen]-NH2; disulfide 1-8 (inferred); N-terminus assumed)", "values": [
      {"measurement": "decrease (loss) of binding affinity / potency relative to LXW7", "setting": "[1]", "value": "4 to 10", "unit": "fold"}
    ]},
    {"molecule": "R3-cGRGDdvc-NH2 [compound 20]", "values": [
      {"measurement": "binding affinity compared with LXW7 (in words)", "setting": "[1]", "value": "modest loss of potency"}
    ]},
    {"molecule": "CC(C)[C@H]1NC(=O)[C@@H](CC(=O)O)NC(=O)[C@H](CC(=O)O)NC(=O)CNC(=O)[C@H](CCCNC(=N)N)NC(=O)CNC(=O)[C@H](N)CSSC[C@H](C(N)=O)NC1=O", "note": "[peptide 1, cGRGDdvc-NH2] (H-[dC]GRGD[dD][dV][dC]-NH2; disulfide 1-8 (inferred); N-terminus assumed)", "values": [
      {"measurement": "binding to αvβ3 integrin", "setting": "[7]", "value": "strongly"},
      {"measurement": "binding to αvβ5 integrin", "setting": "[8]", "value": "weakly"},
      {"measurement": "binding to αIIbβ3 integrin", "setting": "[9]", "value": "weakly"},
      {"measurement": "binding to α5β1 integrin", "setting": "[10]", "value": "no binding"},
      {"measurement": "liver uptake", "setting": "[11]", "value": "low liver uptake"},
      {"measurement": "tumor uptake", "setting": "[11]", "value": "excellent tumor uptake"}
    ]}
  ]
}
